Data published in the supplement of paper PMC9663587.

Legend:
[1] = compound: CCN1CCN(Cc2ccc(Nc3ncc(F)c(-c4cc(F)c5nc(C)n(C(C)C)c5c4)n3)nc2)CC1; assay: increase in dead-cell fraction, 72 h; higher = more death;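 note: breast cancer cell lines in 384-well plates, stained with Hoechst plus LIVE/DEAD far red dye and imaged, cells above an LDR intensity threshold counted dead, Hoechst-negative corpses included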
Flavopiridol [2] = compound: T1, CN1CC[C@H](c2c(O)cc(O)c3c(=O)cc(-c4ccccc4Cl)oc23)[C@H](O)C1 [Flavopiridol]; assay: as above
LEE011/Ribociclib = compound: CN(C)C(=O)c1cc2cnc(Nc3ccc(N4CCNCC4)cn3)nc2n1C1CCCC1 [LEE011/Ribociclib]; assay: GR value, 72 h; higher = faster growth (1 = untreated, <0 = killing);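 note: breast cancer and non-malignant breast epithelial lines, nine half-log doses, viable cells counted by Hoechst and LIVE/DEAD dye imaging versus time-zero plates and DMSO controls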
[3] = compound: CCN1CCN(Cc2ccc(Nc3ncc(F)c(-c4cc(F)c5nc(C)n(C(C)C)c5c4)n3)nc2)CC1; assay: as above
[4] = compound: CCc1cnn2c(NCc3ccc[n+]([O-])c3)cc(N3CCCC[C@H]3CCO)nc12; assay: as above
Flavopiridol [5] = compound: T1, Flavopiridol; assay: as above
[6] = compound: CC(=O)c1c(C)c2cnc(Nc3ccc(N4CCNCC4)cn3)nc2n(C2CCCC2)c1=O; assay: as above
THZ1 = compound: CN(C)C/C=C/C(=O)Nc1ccc(C(=O)Nc2cccc(Nc3ncc(Cl)c(-c4c[nH]c5ccccc45)n3)c2)cc1 [THZ1]; assay: as above
THZ531 = compound: CN(C)C/C=C/C(=O)Nc1ccc(C(=O)N2CCC[C@@H](Nc3ncc(Cl)c(-c4c[nH]c5ccccc45)n3)C2)cc1 [THZ531]; assay: as above
BSJ-03-123 = compound: CC(=O)c1c(C)c2cnc(Nc3ccc(N4CCN(CCOCCOCCOCCNC(=O)COc5cccc6c5C(=O)N(C5CCC(=O)NC5=O)C6=O)CC4)cn3)nc2n(C2CCCC2)c1=O [BSJ-03-123]; assay: as above
Neratinib/HKI272 = compound: CCOc1cc2ncc(C#N)c(Nc3ccc(OCc4ccccn4)c(Cl)c3)c2cc1NC(=O)/C=C/CN(C)C [Neratinib/HKI272]; assay: as above
YKL-5-124 = compound: C=CC(=O)Nc1ccc(C(=O)Nc2[nH]nc3c2CN(C(=O)N[C@H](CN(C)C)c2ccccc2)C3(C)C)cc1 [YKL-5-124]; assay: as above

SUM149
increase in dead-cell fraction ([1]; 0.001 µM): -0.0036 | increase in dead-cell fraction ([1]; 0.003162 µM): -0.0058 | increase in dead-cell fraction ([1]; 0.01 µM): -0.0009 | increase in dead-cell fraction ([1]; 0.03162 µM): -0.0068 | increase in dead-cell fraction ([1]; 0.1 µM): -0.0045 | increase in dead-cell fraction ([1]; 0.3162 µM): -0.0069 | increase in dead-cell fraction ([1]; 1 µM): -0.0076 | increase in dead-cell fraction ([1]; 3.162 µM): -0.0046 | increase in dead-cell fraction ([1]; 10 µM): 0.0956 | increase in dead-cell fraction (Flavopiridol [2]; 0.0001 µM): 0.0065 | increase in dead-cell fraction (Flavopiridol [2]; 0.0003162 µM): -0.0003 | increase in dead-cell fraction (Flavopiridol [2]; 0.001 µM): 0.0038 | increase in dead-cell fraction (Flavopiridol [2]; 0.003162 µM): -0.0072 | increase in dead-cell fraction (Flavopiridol [2]; 0.01 µM): -0.0008 | increase in dead-cell fraction (Flavopiridol [2]; 0.03162 µM): 0.0051 | increase in dead-cell fraction (Flavopiridol [2]; 0.1 µM): 0.0079 | increase in dead-cell fraction (Flavopiridol [2]; 0.3162 µM): 0.114 | increase in dead-cell fraction (Flavopiridol [2]; 1 µM): 0.787 | GR value (LEE011/Ribociclib; 0.001 µM): 0.951 GR | GR value (LEE011/Ribociclib; 0.003162 µM): 0.904 GR | GR value (LEE011/Ribociclib; 0.01 µM): 0.916 GR | GR value (LEE011/Ribociclib; 0.03162 µM): 0.885 GR | GR value (LEE011/Ribociclib; 0.1 µM): 0.776 GR | GR value (LEE011/Ribociclib; 0.3162 µM): 0.771 GR | GR value (LEE011/Ribociclib; 1 µM): 0.764 GR | GR value (LEE011/Ribociclib; 3.162 µM): 0.669 GR | GR value (LEE011/Ribociclib; 10 µM): 0.599 GR | GR value ([3]; 0.001 µM): 0.973 GR | GR value ([3]; 0.003162 µM): 1.02 GR | GR value ([3]; 0.01 µM): 0.875 GR | GR value ([3]; 0.03162 µM): 0.751 GR | GR value ([3]; 0.1 µM): 0.666 GR | GR value ([3]; 0.3162 µM): 0.562 GR | GR value ([3]; 1 µM): 0.417 GR | GR value ([3]; 3.162 µM): 0.375 GR | GR value ([3]; 10 µM): 0.0944 GR | GR value ([4]; 0.0001 µM): 1.01 GR | GR value ([4]; 0.0003162 µM): 1.04 GR | GR value ([4]; 0.001 µM): 1.01 GR | GR value ([4]; 0.003162 µM): 1.03 GR | GR value ([4]; 0.01 µM): 0.828 GR | GR value ([4]; 0.03162 µM): -0.457 GR | GR value ([4]; 0.1 µM): -0.575 GR | GR value ([4]; 0.3162 µM): -0.578 GR | GR value ([4]; 1 µM): -0.561 GR | GR value (Flavopiridol [5]; 0.0001 µM): 0.972 GR | GR value (Flavopiridol [5]; 0.0003162 µM): 1.01 GR | GR value (Flavopiridol [5]; 0.001 µM): 0.951 GR | GR value (Flavopiridol [5]; 0.003162 µM): 0.944 GR | GR value (Flavopiridol [5]; 0.01 µM): 0.862 GR | GR value (Flavopiridol [5]; 0.03162 µM): 0.964 GR | GR value (Flavopiridol [5]; 0.1 µM): 0.788 GR | GR value (Flavopiridol [5]; 0.3162 µM): 0.177 GR | GR value (Flavopiridol [5]; 1 µM): -0.591 GR | GR value ([6]; 0.0003162 µM): 1.02 GR | GR value ([6]; 0.001 µM): 1.03 GR | GR value ([6]; 0.003162 µM): 0.983 GR | GR value ([6]; 0.01 µM): 0.981 GR | GR value ([6]; 0.03162 µM): 0.82 GR | GR value ([6]; 0.1 µM): 0.701 GR | GR value ([6]; 0.3162 µM): 0.623 GR | GR value ([6]; 1 µM): 0.567 GR | GR value ([6]; 3.162 µM): 0.485 GR | GR value (THZ1; 0.0001 µM): 0.968 GR | GR value (THZ1; 0.0003162 µM): 0.963 GR | GR value (THZ1; 0.001 µM): 1.04 GR | GR value (THZ1; 0.003162 µM): 0.927 GR | GR value (THZ1; 0.01 µM): 0.923 GR | GR value (THZ1; 0.03162 µM): 0.704 GR | GR value (THZ1; 0.1 µM): 0.165 GR | GR value (THZ1; 0.3162 µM): -0.351 GR | GR value (THZ1; 1 µM): -0.506 GR | GR value (THZ531; 0.0001 µM): 0.986 GR | GR value (THZ531; 0.0003162 µM): 0.996 GR | GR value (THZ531; 0.001 µM): 0.931 GR | GR value (THZ531; 0.003162 µM): 1.03 GR | GR value (THZ531; 0.01 µM): 1.05 GR | GR value (THZ531; 0.03162 µM): 0.999 GR | GR value (THZ531; 0.1 µM): 0.963 GR | GR value (THZ531; 0.3162 µM): 0.598 GR | GR value (THZ531; 1 µM): -0.539 GR | GR value (BSJ-03-123; 0.001 µM): 0.996 GR | GR value (BSJ-03-123; 0.003162 µM): 0.91 GR | GR value (BSJ-03-123; 0.01 µM): 0.904 GR | GR value (BSJ-03-123; 0.03162 µM): 0.794 GR | GR value (BSJ-03-123; 0.1 µM): 0.81 GR | GR value (BSJ-03-123; 0.3162 µM): 0.72 GR | GR value (BSJ-03-123; 1 µM): 0.579 GR | GR value (BSJ-03-123; 3.162 µM): 0.428 GR | GR value (BSJ-03-123; 10 µM): 0.0273 GR | GR value (Neratinib/HKI272; 0.0003162 µM): 1.04 GR | GR value (Neratinib/HKI272; 0.001 µM): 1.01 GR | GR value (Neratinib/HKI272; 0.003162 µM): 1.02 GR | GR value (Neratinib/HKI272; 0.01 µM): 0.895 GR | GR value (Neratinib/HKI272; 0.03162 µM): 0.663 GR | GR value (Neratinib/HKI272; 0.1 µM): 0.408 GR | GR value (Neratinib/HKI272; 0.3162 µM): 0.251 GR | GR value (Neratinib/HKI272; 1 µM): 0.199 GR | GR value (Neratinib/HKI272; 3.162 µM): 0.144 GR | GR value (YKL-5-124; 0.001 µM): 0.351 GR | GR value (YKL-5-124; 0.003162 µM): 0.226 GR | GR value (YKL-5-124; 0.01 µM): 0.228 GR | GR value (YKL-5-124; 0.03162 µM): 0.141 GR | GR value (YKL-5-124; 0.1 µM): 0.132 GR | GR value (YKL-5-124; 0.3162 µM): 0.114 GR | GR value (YKL-5-124; 1 µM): 0.0596 GR | GR value (YKL-5-124; 3.162 µM): 0.0431 GR | GR value (YKL-5-124; 10 µM): -0.104 GR
